In publication PMC3589550 (Nature structural & molecular biology, 2011):
Ends that are not written are not given here.

Tests used:
[1] = target: HAUSP TRAF domain (HAUSP^62–205) (Homo sapiens, UniProt Q93009); format: binding; settings: ITC
HAUSP [2] = target: T1, HAUSP (Homo sapiens, UniProt Q93009); assay: In vitro DUB assay with ubiquitinated MDM2; format: biochemical; settings: HAUSP preincubated with increasing concentrations of peptide
PEL cells = assay: Immunoblot of p53 and transcriptional targets, PEL cells; format: cell-based; settings: various PEL cells, 6 h
HAUSP TRAF domain = assay: Competitive ITC: vIRF4^202–216 vs cellular substrate peptides on the TRAF domain; format: binding
BJAB cells = assay: Immunoblot of p53 pathway proteins, BJAB; format: cell-based; settings: 6 h
HAUSP [3] = target: T1, HAUSP; assay: Co-IP / GST pull-down of HAUSP; format: binding; settings: transfected 293T cells
HAUSP [4] = target: T1, HAUSP; assay: In vitro deubiquitination; format: biochemical

T1 sequence (Q93009 whole entry): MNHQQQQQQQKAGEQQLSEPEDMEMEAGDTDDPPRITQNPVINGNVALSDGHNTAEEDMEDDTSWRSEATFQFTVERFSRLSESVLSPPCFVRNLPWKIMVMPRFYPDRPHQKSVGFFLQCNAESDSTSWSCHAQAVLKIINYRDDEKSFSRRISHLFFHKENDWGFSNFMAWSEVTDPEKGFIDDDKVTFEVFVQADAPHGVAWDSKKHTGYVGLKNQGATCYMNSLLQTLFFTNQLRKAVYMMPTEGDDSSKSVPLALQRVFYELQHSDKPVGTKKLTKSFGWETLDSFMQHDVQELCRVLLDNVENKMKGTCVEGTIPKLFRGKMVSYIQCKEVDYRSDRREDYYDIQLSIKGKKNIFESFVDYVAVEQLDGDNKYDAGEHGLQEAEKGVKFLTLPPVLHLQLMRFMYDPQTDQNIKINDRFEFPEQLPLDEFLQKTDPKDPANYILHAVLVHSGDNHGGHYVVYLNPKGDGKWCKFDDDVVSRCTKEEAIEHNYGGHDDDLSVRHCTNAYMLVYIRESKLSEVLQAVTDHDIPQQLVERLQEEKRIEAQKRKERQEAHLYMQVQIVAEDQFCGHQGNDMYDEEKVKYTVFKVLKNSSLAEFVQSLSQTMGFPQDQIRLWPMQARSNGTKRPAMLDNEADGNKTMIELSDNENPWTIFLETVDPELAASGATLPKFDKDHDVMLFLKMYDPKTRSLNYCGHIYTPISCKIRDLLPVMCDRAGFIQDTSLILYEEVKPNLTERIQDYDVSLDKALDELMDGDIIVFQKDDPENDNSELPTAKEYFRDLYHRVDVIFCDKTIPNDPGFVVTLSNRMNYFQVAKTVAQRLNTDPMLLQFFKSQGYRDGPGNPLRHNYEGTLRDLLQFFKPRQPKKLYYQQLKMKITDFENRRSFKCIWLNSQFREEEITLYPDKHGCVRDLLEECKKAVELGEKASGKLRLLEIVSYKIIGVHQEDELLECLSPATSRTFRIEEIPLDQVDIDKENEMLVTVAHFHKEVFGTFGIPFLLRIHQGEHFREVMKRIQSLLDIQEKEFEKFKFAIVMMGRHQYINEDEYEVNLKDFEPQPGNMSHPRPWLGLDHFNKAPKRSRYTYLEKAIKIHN
Sequence of HAUSP TRAF domain (HAUSP^62–205) (Q93009 62-205): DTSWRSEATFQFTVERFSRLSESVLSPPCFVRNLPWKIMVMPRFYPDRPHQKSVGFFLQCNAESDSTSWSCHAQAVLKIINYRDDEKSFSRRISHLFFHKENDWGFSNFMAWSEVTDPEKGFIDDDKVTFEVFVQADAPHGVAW

Compound	TRAF binding affinity, in words [1]	HAUSP DUB activity toward ubiquitinated MDM2 (HAUSP [2])	HAUSP levels (PEL cells)	observed association constant (Kobs) (HAUSP TRAF domain; vIRF4^202–216 titrated as competitor against MDM2^137–152)	observed association constant (Kobs) (HAUSP TRAF domain; vIRF4^202–216 titrated as competitor against p53^350–364)	observed association constant (Kobs) (HAUSP TRAF domain; vIRF4^202–216 titrated as competitor against p53^355–369)	HAUSP levels (BJAB cells)	interaction with HAUSP (HAUSP [3])	HAUSP enzymatic activity against K48-linked polyubiquitin chains (HAUSP [4]; K48-linked polyubiquitin chains)	HAUSP DUB activity (HAUSP [4]; purified HAUSP, K48- or K63-linked 3–7 polyubiquitin chains)	association constant (Ka) (HAUSP TRAF domain; substrate peptide titrated into the HAUSP TRAF domain)
CC[C@H](C)[C@H](NC(=O)[C@H](Cc1c[nH]c2ccccc12)NC(=O)[C@@H](NC(=O)[C@@H](N)CO)C(C)C)C(=O)N1CCC[C@H]1C(=O)N[C@H](C(=O)N[C@@H](CC(N)=O)C(=O)N[C@@H](CCC(=O)O)C(=O)NCC(=O)N[C@@H](C)C(=O)N[C@@H](CO)C(=O)N[C@H](C(=O)N[C@@H](CO)C(=O)NCC(=O)N[C@@H](CCSC)C(=O)O)[C@@H](C)O)C(C)C [vif1]	binds to the HAUSP TRAF domain with the highest affinity among all reported substrates	effectively blocked HAUSP DUB activity when ubiquitinated MDM2 was used as a substrate	Neither the vif1 nor vif2 peptide treatment altered HAUSP levels	1.09e+07 M⁻¹	4.42e+07 M⁻¹	3.58e+07 M⁻¹	Neither the vif1 nor vif2 peptide treatment altered HAUSP levels	individually capable of interacting with HAUSP	ineffectiveness against K48-linked polyubiquitin chains	minimally inhibited activity	
DLVQELQEEKPSSSHL [MDM2^137–152, reference compound]											91000 M⁻¹
